Laboratory results: article PMC11234063, “Eugenol and lidocaine inhibit voltage-gated Na^+ channels from dorsal root ganglion neurons with different mechanisms” (Frontiers in Pharmacology, 2024)
Several values for one entry are separate records, joined by “and”; a condition that tells them apart may be missing. Identical values can stand only once. Entries after “also recorded” stand apart in the source; their conditions may differ. Like-named read-outs stand apart in the source and are kept apart here.

Key:
Type in all cases: cell-based, rat
[1] = system: total INa (VGSCs naturally expressed on dorsal root ganglion sensory neurons); test: Dose–response inhibition of total INa peak, whole-cell patch clamp
[2] = system: TTX-R INa (VGSCs of DRG neurons)
[3] = system: total INa (VGSCs of DRG neurons); test: Voltage dependence of Na+ conductance activation (I-V and G-V curves), total INa; conditions: EUG 2 mM
[4] = system: TTX-R INa (VGSCs of DRG neurons); test: Voltage dependence of Na+ conductance activation (I-V and G-V curves), TTX-R INa; conditions: EUG 2 mM
[5] = system: total INa (VGSCs of DRG neurons); test: Steady-state inactivation, 100-ms conditioning pre-pulses, total INa; conditions: EUG 2 mM, LID 1 mM
[6] = system: TTX-R INa (VGSCs of DRG neurons); conditions: EUG 2 mM, LID 1 mM
[7] = system: total INa (VGSCs of DRG neurons); test: Inhibition in depolarization time series at 2 and 5 Hz, total INa; conditions: EUG 2 mM, LID 1 mM
[8] = system: TTX-R INa (VGSCs of DRG neurons); conditions: EUG 2 mM, LID 1 mM; remark: listed apart in the source
[9] = system: total INa (VGSCs of DRG neurons); test: Slow inactivation entry, three-pulse protocol, total INa
[10] = system: TTX-R INa (VGSCs of DRG neurons); test: Slow inactivation entry, three-pulse protocol, TTX-R INa
DRG neuron = test: Action potential firing, current clamp; conditions: EUG 1 mM; 1-ms 1-nA depolarizing current injection
[11] = system: persistent total INa (DRG neurons); test: Persistent total INa at the end of 50-ms depolarizing pulses; conditions: EUG 2 mM, LID 1 mM
[12] = system: total INa (VGSCs of DRG neurons); test: INa inactivation time constants during test pulse, total INa
[13] = system: TTX-R INa (VGSCs of DRG neurons); remark: listed apart in the source
[14] = inhibition at all activating voltages
[15] = individual cells, during exposure to EUG 2 mM or LID 1 mM

Compound: C=CCc1ccc(O)c(OC)c1 [EUG, 4-allyl-2-methoxyphenol]
- Pre-inhibition of total INa ([1]; EUG at 1.3 mM): ~25%
- Time to inhibition of INa upon addition ([1]; fast single-cell superfusion, 0.2 Hz time series): less than 5 s
- Reversibility of inhibition after drug washout ([1]; total INa): fully reversible
- Dose response curves' data, Average (fractional current), EUG (LID 0.5 mM) ([1]; total INa, EUG 0.1 mM in the presence of LID 0.5 mM): 0.97
- Dose response curves' data, Average (fractional current), EUG (LID 0.5 mM) ([1]; total INa, EUG 0.3 mM in the presence of LID 0.5 mM): 0.85
- Dose response curves' data, Average (fractional current), EUG (LID 0.5 mM) ([1]; total INa, EUG 1 mM in the presence of LID 0.5 mM): 0.60
- Dose response curves' data, Average (fractional current), EUG (LID 0.5 mM) ([1]; total INa, EUG 3 mM in the presence of LID 0.5 mM): 0.46
- Dose response curves' data, Average (fractional current), EUG (LID 0.5 mM) ([1]; total INa, EUG 10 mM in the presence of LID 0.5 mM): 0.10
- Dose response curves' data, Average (fractional current) ([1]; total INa, drug at 0.001 mM): 1.00
- Dose response curves' data, Average (fractional current) ([1]; total INa, drug at 0.1 mM): 0.98
- Dose response curves' data, Average (fractional current) ([1]; total INa, drug at 0.3 mM): 0.93
- Dose response curves' data, Average (fractional current) ([1]; total INa, drug at 1 mM): 0.86
- Dose response curves' data, Average (fractional current) ([1]; total INa, drug at 3 mM): 0.36
- Dose response curves' data, Average (fractional current) ([1]; total INa, drug at 10 mM): 0.07
- Dose response curves' data, Average (fractional current) ([1]; total INa, drug at 30 mM): 0.01
- IC50 ([1]; total INa, holding −110 mV, test +20 mV, drug alone): 2.27 ± 0.075 mM
- Time series of INa blockade, Average (normalized current) ([1]; total INa, time 15 sec, drug exposure): 0.55
- Time series of INa blockade, Average (normalized current) ([1]; total INa, time 20 sec, drug exposure): 0.54
- Time series of INa blockade, Average (normalized current) ([1]; total INa, time 25 sec, drug exposure): 0.54
- Time series of INa blockade, Average (normalized current) ([1]; total INa, time 30 sec, recovery): 0.96
- Time series of INa blockade, Average (normalized current) ([1]; total INa, time 35 sec, recovery): 0.99
- Time series of INa blockade, Average (normalized current) ([1]; total INa, time 40 sec, recovery): 0.99
- Reversibility of inhibition after drug washout [2]: fully reversible
- Dose response curves' data, Average (fractional current) ([2]; drug at 0.1 mM): 0.96
- Dose response curves' data, Average (fractional current) ([2]; drug at 0.3 mM): 0.92
- Dose response curves' data, Average (fractional current) ([2]; drug at 1 mM): 0.85
- Dose response curves' data, Average (fractional current) ([2]; drug at 3 mM): 0.34
- Dose response curves' data, Average (fractional current) ([2]; drug at 10 mM): 0.14
- Dose response curves' data, Average (fractional current) ([2]; drug at 30 mM): 0.00
- IC50 ([2]; holding −110 mV, test +20 mV): 2.21 ± 0.08 mM
- Time series of INa blockade, Average (normalized current) ([2]; time 15 sec, drug exposure): 0.62
- Time series of INa blockade, Average (normalized current) ([2]; time 20 sec, drug exposure): 0.62
- Time series of INa blockade, Average (normalized current) ([2]; time 25 sec, drug exposure): 0.63
- Time series of INa blockade, Average (normalized current) ([2]; time 30 sec, recovery): 1.00
- Time series of INa blockade, Average (normalized current) ([2]; time 35 sec, recovery): 1.04
- Time series of INa blockade, Average (normalized current) ([2]; time 40 sec, recovery): 1.03
- Max slope-act ([3]; LID 1 mM): 5.4 ± 0.41 (n = 9) mV/e-fold
- V1/2-act ([3]; LID 1 mM): −13.8 ± 2.18 (n = 9) mV
- Effect on reversal potential of the currents [3, 14]: without significantly affecting
- Max slope-act in individual cells ([3]; individual cells, LID 1 mM): 5.526 mV/efold and 5.494 mV/efold and 4.967 mV/efold and 6.616 mV/efold and 5.996 mV/efold and 6.156 mV/efold and 4.306 mV/efold and 2.717 mV/efold and 6.496 mV/efold
- V1/2-act in individual cells ([3]; individual cells, LID 1 mM): -10.73 mV and -7.173 mV and -19.64 mV and -5.137 mV and -8.98 mV and -24.01 mV and -14.91 mV and -13.00 mV and -20.84 mV
- Max slope-act ([4]; LID 1 mM): 6.4 ± 0.4 (n = 7) mV/e-fold
- V1/2-act ([4]; LID 1 mM): −11.5 ± 1.96 (n = 7) ns mV
- Effect on reversal potential of the currents [4, 14]: without significantly affecting
- Max slope-act in individual cells ([4]; individual cells, LID 1 mM): 6.818 mV/efold and 6.311 mV/efold and 5.452 mV/efold and 4.894 mV/efold and 8.267 mV/efold and 6.510 mV/efold and 6.698 mV/efold
- V1/2-act in individual cells ([4]; individual cells, LID 1 mM): -9.916 mV and -13.33 mV and -16.67 mV and -10.24 mV and -5.511 mV and -5.684 mV and -19.13 mV
- Max slope-inact [5]: −12.2 ± 10.7 (n = 9) ns mV/e-fold
- V1/2-inact [5]: −63.85 ± 2.92 (n = 9) mV
- Max slope-inact in individual cells ([5]; individual cells): -14.8 mV/efold and -10.65 mV/efold and -13.47 mV/efold and -10.21 mV/efold and -17.93 mV/efold and -9.046 mV/efold and -7.985 mV/efold and -14.87 mV/efold and -11.22 mV/efold
- V1/2-inact in individual cells ([5]; individual cells): -63.75 mV and -57.14 mV and -69.63 mV and -55.48 mV and -75.79 mV and -59.29 mV and -57.64 mV and -78.67 mV and -57.24 mV
- Shift of the steady-state inactivation curve, on average ([6]; 100-ms conditioning pulse): −5 mV
- Max slope-inact [6]: −5.83 ± 0.43 (n = 7) ns mV/e-fold
- V1/2-inact [6]: −36.9 ± 2.48 (n = 7) mV
- Max slope-inact in individual cells ([6]; individual cells): -5.184 mV/efold and -6.728 mV/efold and -5.779 mV/efold and -3.945 mV/efold and -7.158 mV/efold and -6.792 mV/efold and -5.233 mV/efold
- V1/2-inact in individual cells ([6]; individual cells): -28.59 mV and -33.94 mV and -32.48 mV and -34.07 mV and -46.4 mV and -44.79 mV and -37.94 mV
- Fractional inhibition, 2 Hz, 1st pulse [7]: 0.53 ± 0.049 (n = 9)
- Fractional inhibition, 5 Hz, 1st pulse [7]: 0.49 ± 0.056 (n = 8)
- Fractional current after blockade, 2 Hz, 1st pulse, individual cells ([7]; individual cells): 0.40 and 0.52 and 0.58 and 0.37 and 0.28 and 0.50 and 0.730 and 0.29 and 0.53
- Fractional current after blockade, 2 Hz, 20th pulse, individual cells ([7]; individual cells): 0.36 and 0.54 and 0.56 (2×) and 0.34 and 0.15 and 0.49 and 0.74 and 0.26
- Fractional current after blockade, 5 Hz, 1st pulse, individual cells ([7]; individual cells): 0.4 and 0.56 and 0.58 and 0.35
- Fractional current after blockade, 5 Hz, 20th pulse, individual cells ([7]; individual cells): 0.31 (2×) and 0.47 and 0.54
- Fractional inhibition, 2 Hz, 20th pulse [8]: 0.44 ± 0.064 (n = 6)
- Fractional inhibition, 5 Hz, 20th pulse [8]: 0.49 ± 0.061 (n = 6)
- Fractional current after blockade, 2 Hz, 1st pulse, individual cells ([8]; individual cells): 0.62 and 0.6 and 0.47 and 0.55
- Fractional current after blockade, 2 Hz, 20th pulse, individual cells ([8]; individual cells): 0.56 and 0.48 and 0.36 and 0.46
- Fractional current after blockade, 5 Hz, 1st pulse, individual cells ([8]; individual cells): 0.75 and 0.63 and 0.55 and 0.51
- Fractional current after blockade, 5 Hz, 20th pulse, individual cells ([8]; individual cells): 0.66 and 0.54 and 0.36 and 0.43
- Fast inactivation entry time constant ([9]; EUG 2 mM, LID 1 mM): 792.48 ± 298.530 ^ns ms
- Fractional current when P1 = 2 m ([9]; EUG 2 mM, LID 1 mM): 0.82 ± 0.034 ^ns
- Percent fast component (slow inactivation entry) ([9]; EUG 2 mM, LID 1 mM): 26.92 ± 4.583 ^ns %
- Slow inactivation entry time constant ([9]; EUG 2 mM, LID 1 mM): 1,142.30 ± 246.525 ^ns
- Slow inactivation state entry kinetics of INa, individual cells [9, 15]: 713.90 and 1928.00 and 344.50 and 1032.00 and 1066.00
- Fast inactivation entry time constant ([10]; EUG 2 mM, LID 1 mM): 76.58 ± 30.563^ns ms
- Fractional current when P1 = 2 m ([10]; EUG 2 mM, LID 1 mM): 0.93 ± 0.028^ns
- Percent fast component (slow inactivation entry) ([10]; EUG 2 mM, LID 1 mM): 47.56 ± 16.257^ns %
- Slow inactivation entry time constant ([10]; EUG 2 mM, LID 1 mM): 631.05 ± 282.320^ns
- Slow inactivation state entry kinetics of INa, individual cells [10, 15]: 558.80 and 167.30 and 405.40 and 711.30 and 255.80
- Effect on action potential firing (DRG neuron): promptly inhibits action potential firing; also recorded: prevents neurons from firing action potentials
- Inhibition of persistent total INa after 50-ms depolarization [11]: remarkably inhibited; also recorded: effectively inhibits
- Effect on inactivation time constants [12]: unaffected
- Effect on inactivation time constants [13]: unaffected

Compound: C/C=C\c1ccc(O)c(OC)c1 [IEUG]
- Dose response curves' data, Average (fractional current) ([1]; total INa, drug at 3 mM): 0.40
- Dose response curves' data, Average (fractional current) ([1]; total INa, drug at 10 mM): 0.02
